Entries after “also recorded” stand apart in the source; their conditions may differ.
What was measured:
rat PC12 neuronal cells = test: MTT assay, Aβ1-42-induced cytotoxicity in PC12 cells (Example I); conditions: MTT
human NT2 cells = test: Trypan blue dye exclusion assay, NT2 cells; type: cell-based; conditions: 25 μM steroid, 72 hours
Procedure: (§1) Rat PC12 cells were cultured as previously described. Yao et al., Brain Res. 889, 181-190 (2001). Human NT2 precursor (Ntera2/D1 teratocarcinoma) cells were obtained from Stratagene (La Jolla, Calif.) and cultured following the instructions of the supplier. Differentiated human NT2 neurons (NT2N) were obtained after treatment of the NT2 precursor cells with retinoic acid. Andrews, Dev. […] Aβ was dissolved in media and used either in the aggregated (left overnight at 4° C.) or soluble (containing oligomers such as dimers and tetramers) forms examined by electrophoresis as previously described. Yao et al., Brain Res. (2001). […] Id. Cell viability was measured using the trypan blue exclusion method as previously described. Id. In brief, for these studies, cells were treated for 72 hours with steroids in the presence or absence of increasing concentrations of Aβ. At the end of the incubation, the cells were washed three times with PBS and incubated for 15 minutes with 0.1% trypan blue stain solution at room temperature. After washing three times with PBS, 0.1 N NaOH was added to the cells and trypan blue staining was quantified using the Victor quantitative detection spectrophotometer (EGG-Wallac, Gaithersburg, Md.) at 450 nm. Cell protein levels were determined in the same samples by the method of Bradford (Bradford, Anal. Biochem., 72, 248-254 (1976)), where coomassie blue staining is detected at 590 nm.
(§2) The results obtained from using MTT assay were further confirmed with the trypan blue dye exclusion assay. […] Levels of viability were measured using the trypan blue assay as described under Materials and Methods. Results are expressed as fold trypan blue stained cells per total cell protein over control untreated cells. Results shown are means±SD (n=6-12).

rat PC12 cells = test: Trypan blue dye exclusion assay, PC12 cells (Example I); type: cell-based; conditions: 100 μM steroid, 72 hours
Procedure: as §1, §2

NT2 cells [1] = test: NT2 cell differentiation, phase-contrast morphology; type: cell-based, human; conditions: 25 μM; 3, 6 and 12 days (comparators 6 days)
Aβ = molecular target: T1, Aβ (Homo sapiens, UniProt P05067); test: CPBBA displacement of radiolabeled 22R-hydroxycholesterol from Aβ (Example II); type: binding; conditions: 100 μM unlabeled compound; 50 μM Aβ
T1 construct: Aβ1-42 peptide was purchased from American Peptide Co; purchased American Peptide Co. (Sunnyvale, Calif.)
Procedure: At the end of the incubation time, samples were separated by 1.5% agarose (Type I-B) gel electrophoresis under native conditions and transferred to nitrocellulose membrane (Schleicher&Schuell, Keene, N.H.) in 10×SSC buffer. The membrane was exposed to tritium-sensitive screen and analyzed by phosphoimaging using the Cyclone Storage phosphor system (Packard BioScience). Image-densitometric analysis was performed using the OptiQuant software (Packard BioScience). […] Low molecular weight unincorporated 22R-hydroxycholesterol and derivatives are separated and eliminated during electrophoresis.

[2] = test system: PC12 cells (rat pheochromocytoma neurons); test: MTT cytotoxicity assay, Aβ-induced neurotoxicity in PC12 cells (Example II); type: cell-based; conditions: for neuroprotection against Aβ-induced neurotoxicity (structure/activity discussion): PC12 cells; for neuroprotective effect compared with SP222 / neuroprotection against 0.1 μM Aβ-induced neurotoxicity / neuroprotection against 10 μM Aβ-induced neurotoxicity / neuroprotection against 1 μM Aβ-induced neurotoxicity: MTT; for neuroprotective effect compared with SP222: 0.1 μM Aβ; for neuroprotection against 0.1 μM Aβ-induced neurotoxicity / neuroprotection against 10 μM Aβ-induced neurotoxicity / neuroprotection against 1 μM Aβ-induced neurotoxicity: compounds at 30 and 50 μM, 72 hours
Procedure: (§3) PC12 cells (rat pheochromocytoma neurons) from ATCC (Manassas, Va.) were cultured at 37° C. and 5% CO2 in RPMI 1640 medium devoid of glutamine and supplemented with 10% fetal bovine serum and 5% horse serum. Yao Z, Drieu K and Papadopoulos V., The Gingko biloba extract EGb 761 rescues PC12 neuronal cells from β-amyloid-induced cell death by inhibiting the formation of (3-amyloid-derived diffusible neurotoxic ligands, Brain Res, 889, 181-190 (2001). Cells were seeded in 96-well plates (8×10^4 cells/well). After an overnight period of incubation, increasing concentrations of aggregated Aβ (0.1, 1 and 10 μM) were added to the cells in the presence or absence of the indicated concentrations of the SP compounds to be tested. After 72-hours incubation time various parameters, markers of cell viability, were determined. Mouse MA-10 tumor Leydig cells were maintained at 37° C. in DMEM/Ham's F12 (Biofluids, Rockville, Md.) medium supplemented with 5% heat-inactivated fetal calf serum and 2.5% horse serum in 5% CO2. Cells were plated on 96-well plates at the density of 2.5×10^4 cells/well for overnight. The cells were stimulated with the indicated concentrations of the various SP compounds in 0.2 ml/well serum-free medium for 2 hours. The culture medium was collected and tested for progesterone production by radioimmunoassay.
The cellular toxicity of Aβ was assessed using the 3-(4,5-dimethylthiazol-2-yl)-2,5-diphenyl tetrazolium bromide (MTT) assay (Trevigen, Gaithersburg, Md.). Briefly, 10 μl of the MTT solution were added to the cells cultured in 100 μl medium. After an incubation period of 4 hours, 100 μl of detergent were added and cells were incubated overnight at 37° C. Formazan blue formation was quantified at 600 nm and 690 nm using the Victor quantitative detection spectrophotometer (EGG-Wallac, Gaithersburg, Md.) and the results expressed as (DO600-DO690). […] Liu Y and Schubert D, Steroid hormones block amyloid fibril-induced 3-(4,5-dimethylthiazol-2-yl)-2,5-diphenyltetrazolium bromide (MTT) formazan exocytosis: relationship to neurotoxicity, J. Neurochem., 19, 1639-1662 (1998). For that reason, additional cytotoxicity and cell viability assays were used.
Yao et al., J. Neurochem., 83, 1110-1119 (2002); and Yao et al., The Gingko biloba extract EGb 761 rescues PC12 neuronal cells from β-amyloid-induced cell death by inhibiting the formation of β-amyloid-derived diffusible neurotoxic ligands, Brain Res., 889, 181-190 (2001). To stay close to the concentrations of Aβ present in AD brain, 0.1-10 μM concentrations of Aβ were used. The compounds tested for their neuroprotective properties were examined at 30 and 50 μM concentrations (FIGS. 9-15).

PC12 cells [3] = test: Cellular ATP levels (ATPLite-M) in Aβ-treated PC12 cells; type: cell-based, rat; conditions: 0.1 and 1.0 μM Aβ
Procedure: as §3
Cellular ATP concentrations were measured using the ATPLite-M™ luminescence assay (Packard BioSciences Co.). For this assay, cells were cultured on black 96-well ViewPlate™ and the ATP concentrations were measured on a TopCount NXT™ counter (Packard BioSciences Co.) following the recommendations of the manufacturer.

PC12 cells [4] = test: Membrane potential (CytoLite luminescence) in Aβ-treated PC12 cells; type: cell-based, rat; conditions: 10 μM Aβ
Procedure: as §3
Cells viability was also assessed using the luminescence-based kit CytoLite™ (Packard BioScience Co.) according to the recommendations of the manufacturer. Briefly, cells were cultured and treated in 96-well plates and after 72-hours incubation time, 25 μl of Activator solution was added to the cells followed by 150 μl of Amplifier solution. Luminescence was measured on a TopCount NXT™ counter (Packard BioSciences Co.) following a 5 minute precount delay.

NT2 cells [5] = test: BrdU assay, NT2 cell proliferation; type: cell-based, human; conditions: 50 μM

T1 sequence (P05067 672-713): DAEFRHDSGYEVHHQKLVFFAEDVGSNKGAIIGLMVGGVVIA

CC(=O)[C@@]1(O)CC[C@H]2[C@@H]3CC=C4C[C@@H](O)CC[C@]4(C)[C@H]3CC[C@@]21C [17α-hydroxypregnenolone, 5-pregnen-3β, 17α-diol-20-one]
PC12 cell viability, steroid alone (rat PC12 neuronal cells; absence of Aβ): toxic to the cells

C[C@]12CC[C@H](O)CC1=CC[C@@H]1[C@@H]2CC[C@]2(C)C(=O)CC[C@@H]12 [DHEA, 5-androsten-3β-ol-17-one]
rescue from Aβ1-42-induced cell death (human NT2 cells): had no effect | rescue from Aβ25-35-induced cell death (human NT2 cells): Neither 22R-hydroxycholesterol nor DHEA could rescue | PC12 cell viability, steroid alone at 100 μM (rat PC12 neuronal cells; 100 μM steroid): positive effect on cell viability | rescue from Aβ1-42-induced cell death (rat PC12 cells): protected | rescue from Aβ25-35-induced cell death (rat PC12 cells): Neither 22R-hydroxycholesterol nor DHEA could rescue | effect on NT2 cell morphology (differentiation) (NT2 cells [1]): could not be replicated

CC1CCC2(OC1)OC1CC3C4CC=C5CC(O)C(O)CC5(C)C4CCC3(C)C1C2C [SP227, (22R,25ζ)-(20α)-spirost-5-en-(2α,3ζ)-diol]
displacement of radiolabeled 22R-hydroxycholesterol binding to Aβ (Aβ): 38%

C[C@H]1CC[C@@]2(OC1)O[C@H]1C[C@H]3[C@@H]4CC=C5CC(O)CC[C@]5(C)[C@H]4CC[C@]3(C)[C@H]1[C@@H]2C (stereo partly drawn) [SP231, (22R,25S)-(20ζ)-spirost-5-en-3ζ-ol]
neuroprotection against Aβ-induced neurotoxicity (structure/activity discussion) [2]: only SP235 is protective

CC1CCC2(OC1)OC1CC3C4CC=C5CC(OC(=O)c6ccccc6)CCC5(C)C4CCC3(C)C1C2C [SP232, (22R,25ζ)-(20α)-spirost-5-en-3β-yl benzoate]
neuroprotection against Aβ-induced neurotoxicity (structure/activity discussion) [2]: not effective in neuroprotection

C[C@H]1CC[C@@]2(OC1)O[C@H]1C[C@H]3[C@@H]4CC=C5C[C@@H](O)CC[C@]5(C)[C@H]4CC[C@]3(C)[C@H]1[C@@H]2C [SP235, (22R,25S)-(20α)-spirost-5-en-3β-ol]
reversal of Aβ-induced decrease in ATP levels (PC12 cells [3]): did not block | neuroprotective effect compared with SP222 [2]: significantly more robust effect than SP222 | neuroprotection against 0.1 μM Aβ-induced neurotoxicity [2]: displayed neuroprotective activity | neuroprotection against 10 μM Aβ-induced neurotoxicity [2]: exhibited neuroprotective activity | neuroprotection against Aβ-induced neurotoxicity (structure/activity discussion) [2]: limited neuroprotection acting only against 0.1 μM Aβ

CC(=O)OC1CC[C@@]2(C)C(=CC[C@H]3[C@@H]4CC(OC(C)=O)[C@H]([C@H](C)C(CCC(C)CN(C(C)=O)C(C)=O)OC(C)=O)[C@@]4(C)CC[C@@H]32)C1 (stereo partly shown) [SP237, 26-diacetylamino-(22ζ)-acetoxy-(16ζ)-acetoxy-cholest-5-en-yl acetate]
displacement of radiolabeled 22R-hydroxycholesterol binding to Aβ (Aβ): 46% | neuroprotection against 0.1 μM Aβ-induced neurotoxicity [2]: displayed neuroprotective activity

CCC(=O)O[C@H]1CC[C@@]2(C)C(=CC[C@H]3[C@@H]4C[C@@H]5O[C@@]6(CC[C@H](C)CN6C(C)=O)[C@@H](C)[C@@H]5[C@@]4(C)CC[C@@H]32)C1 [SP238, (20α)-25S-methyl-N-acetyl-(22S,26)-azacyclofurost-5-en-3β-yl propanoate]
neuroprotective effect against 10 μM Aβ, membrane potential luminescence (PC12 cells [4]): replicated by the raise of the signal | reversal of Aβ-induced decrease in ATP levels (PC12 cells [3]): did not block; also recorded: no effect on maintaining ATP levels | displacement of radiolabeled 22R-hydroxycholesterol binding to Aβ (Aβ): 44% | neuroprotective effect compared with SP222 [2]: significantly more robust effect than SP222 | neuroprotection against 0.1 μM Aβ-induced neurotoxicity [2]: displayed neuroprotective activity | neuroprotection against 1 μM Aβ-induced neurotoxicity [2]: maintained their neuroprotective properties | neuroprotection against 10 μM Aβ-induced neurotoxicity [2]: kept this property; also recorded: exhibited neuroprotective activity | neuroprotection against Aβ-induced neurotoxicity (structure/activity discussion) [2]: able to protect PC12 cells

CC(C)CCC[C@@H](C)[C@H]1CC[C@H]2[C@@H]3CC=C4C[C@@H](O)CC[C@]4(C)[C@H]3CC[C@]12C [cholesterol, 5-cholesten-3β-ol]
effect on toxicity of low concentrations of Aβ (rat PC12 neuronal cells): accentuated the toxic effect of low concentrations of Aβ | neuroprotective effect against Aβ-induced neurotoxicity (rat PC12 neuronal cells; Aβ1-42): could not be replicated | effect on NT2 cell morphology (differentiation) (NT2 cells [1]): could not be replicated

CC(=O)[C@H]1CC[C@H]2[C@@H]3CCC4=CC(=O)CC[C@]4(C)[C@H]3CC[C@]12C [progesterone]
effect on NT2 cell morphology (differentiation) (NT2 cells [1]): could not be replicated | NT2 cell proliferation at 50 μM (NT2 cells [5]): significantly inhibited

(20α)-25ζ-methyl-N-paratoluenesulfonyl-(22R,26)-azacyclofurost-5-en-3ζ-yl paratoluenesulfonate [SP229]
neuroprotection against 0.1 μM Aβ-induced neurotoxicity [2]: displayed neuroprotective activity

(20ζ)-25ζ-methyl-N-acetyl-(22R,26)-azacyclofurost-5-en-3ζ-ol [SP226]
displacement of radiolabeled 22R-hydroxycholesterol binding to Aβ (Aβ): 65% | neuroprotection against Aβ-induced neurotoxicity (structure/activity discussion) [2]: did not offer neuroprotection

(20ζ)-26-acetylamino-(22ζ)-ethoxyfurost-5-en-3ζ-yl acetate [SP228]
neuroprotection against 0.1 μM Aβ-induced neurotoxicity [2]: displayed neuroprotective activity

(22R,25S)-(20α)-spirost-5-en-3β-yl succinate [SP236]
reversal of Aβ-induced decrease in ATP levels (PC12 cells [3]): able to reverse; also recorded: blocked, although in part | neuroprotective effect compared with SP222 [2]: significantly more robust effect than SP222 | neuroprotection against 0.1 μM Aβ-induced neurotoxicity [2]: displayed neuroprotective activity | neuroprotection against 1 μM Aβ-induced neurotoxicity [2]: maintained their neuroprotective properties | neuroprotection against 10 μM Aβ-induced neurotoxicity [2]: exhibited neuroprotective activity | neuroprotection against Aβ-induced neurotoxicity (structure/activity discussion) [2]: active against higher Aβ concentrations
